Key:
RMA = assay type: biochemical, Candida maltosa IFO 1977 strain
[1] = test system: enzyme derived from Candida parapsilosis IFO 1396 strain; conditions: cited from earlier work

O=C(O)CN(CCN(CC(=O)O)CC(=O)O)CC(=O)O [Ethylenediaminetetraacetic acid]
Relative activity (%) of RMA after treatment with inhibitor (RMA): 12.9%
inhibition of RMA (in words) (RMA): inhibited
inhibition of enzyme activity (in words) [1]: not inhibited
